Key:
human UGT1A4 = biological target: T1, human UGT1A4 (Homo sapiens, UniProt P22310); assay: Epirubicin glucuronidation in microsomes expressing UGT1A4; conditions: Nd = not detectable
T1 sequence (P22310 29-534): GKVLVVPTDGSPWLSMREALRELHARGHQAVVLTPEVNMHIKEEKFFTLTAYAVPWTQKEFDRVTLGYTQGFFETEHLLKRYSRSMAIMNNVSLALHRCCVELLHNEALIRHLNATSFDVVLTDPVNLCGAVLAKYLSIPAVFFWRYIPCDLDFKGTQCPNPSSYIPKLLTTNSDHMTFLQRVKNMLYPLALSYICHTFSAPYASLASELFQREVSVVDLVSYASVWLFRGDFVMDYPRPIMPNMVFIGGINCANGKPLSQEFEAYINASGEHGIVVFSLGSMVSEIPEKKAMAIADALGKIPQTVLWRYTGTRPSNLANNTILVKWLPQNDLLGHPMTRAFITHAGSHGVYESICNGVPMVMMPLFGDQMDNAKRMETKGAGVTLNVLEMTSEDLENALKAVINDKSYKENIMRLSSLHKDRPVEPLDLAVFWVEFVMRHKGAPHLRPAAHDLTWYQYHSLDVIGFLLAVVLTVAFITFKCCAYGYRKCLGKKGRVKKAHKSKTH
Description: (§1) Microsomes from human lymphoblasts and insect cells (BTI-TN-5B1-4) both transfected with a vector containing human UGT1A1, UGT1A3, UGT1A4, UGT1A6, UGT1A9 and UGT2B15 complementary DNA (cDNA) and their negative control (microsomes from cells infected with wild-type vector) were obtained from Gentest Corp. (Woburn, Mass.). Microsomes from insect cells (SF-9) infected with a baculovirus containing human cDNA for UGT2B7 and their negative control were purchased from PanVera (Madison, Wis.).
(§2) For this purpose, dried samples were reconstituted with 0.2 ml of sodium phosphate buffer (0.1 M, pH 6.8) containing 1000 U of β-glucuronidase (type VII, from E. coli) and incubated overnight at 37° C. Reference samples containing no enzyme were treated identically.
(§3) The mobile phase consisted of 30% acetonitrile and 70% 50 mM sodium dihydrogen phosphate (pH adjusted to 4 with 8.5% ortho-phosphoric acid).

human UGT1A3 = biological target: T2, human UGT1A3 (Homo sapiens, UniProt P35503); assay: Epirubicin glucuronidation in microsomes expressing UGT1A3; conditions: Nd = not detectable
T2 sequence (P35503 29-534): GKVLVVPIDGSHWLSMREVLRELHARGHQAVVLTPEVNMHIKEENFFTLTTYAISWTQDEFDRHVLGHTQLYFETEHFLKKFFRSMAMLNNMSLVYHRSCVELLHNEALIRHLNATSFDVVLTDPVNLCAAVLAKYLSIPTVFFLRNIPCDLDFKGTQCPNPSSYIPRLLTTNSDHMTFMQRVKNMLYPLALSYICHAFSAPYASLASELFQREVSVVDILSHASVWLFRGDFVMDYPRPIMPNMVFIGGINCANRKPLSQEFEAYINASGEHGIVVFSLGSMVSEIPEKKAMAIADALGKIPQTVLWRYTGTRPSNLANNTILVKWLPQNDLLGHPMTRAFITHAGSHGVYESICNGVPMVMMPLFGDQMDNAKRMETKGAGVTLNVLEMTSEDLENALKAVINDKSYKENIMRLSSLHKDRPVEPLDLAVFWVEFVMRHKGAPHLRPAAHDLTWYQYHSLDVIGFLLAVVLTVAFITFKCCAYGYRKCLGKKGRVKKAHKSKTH
Description: as §1, §2, §3

human UGT1A6 = biological target: T3, human UGT1A6 (Homo sapiens, UniProt P19224); assay: Epirubicin glucuronidation in microsomes expressing UGT1A6; conditions: Nd = not detectable
T3 sequence (P19224 27-532): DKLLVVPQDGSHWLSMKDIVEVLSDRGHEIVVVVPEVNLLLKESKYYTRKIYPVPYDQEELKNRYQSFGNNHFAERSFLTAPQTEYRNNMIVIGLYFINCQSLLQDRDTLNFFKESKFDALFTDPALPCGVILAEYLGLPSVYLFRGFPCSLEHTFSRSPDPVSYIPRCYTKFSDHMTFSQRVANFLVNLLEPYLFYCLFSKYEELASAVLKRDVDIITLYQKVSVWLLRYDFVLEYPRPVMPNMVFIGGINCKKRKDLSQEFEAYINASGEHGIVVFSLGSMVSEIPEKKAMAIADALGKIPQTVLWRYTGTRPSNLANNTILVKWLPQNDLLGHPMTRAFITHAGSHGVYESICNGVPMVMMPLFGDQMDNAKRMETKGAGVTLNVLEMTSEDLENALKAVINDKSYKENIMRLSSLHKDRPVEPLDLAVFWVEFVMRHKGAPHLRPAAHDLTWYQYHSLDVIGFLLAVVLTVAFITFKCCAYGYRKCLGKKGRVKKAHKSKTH
Description: as §1, §2, §3

human UGT2B15 = biological target: T4, human UGT2B15 (Homo sapiens, UniProt P54855); assay: Epirubicin glucuronidation in microsomes expressing UGT2B15; conditions: Nd = not detectable
T4 sequence (P54855 24-530): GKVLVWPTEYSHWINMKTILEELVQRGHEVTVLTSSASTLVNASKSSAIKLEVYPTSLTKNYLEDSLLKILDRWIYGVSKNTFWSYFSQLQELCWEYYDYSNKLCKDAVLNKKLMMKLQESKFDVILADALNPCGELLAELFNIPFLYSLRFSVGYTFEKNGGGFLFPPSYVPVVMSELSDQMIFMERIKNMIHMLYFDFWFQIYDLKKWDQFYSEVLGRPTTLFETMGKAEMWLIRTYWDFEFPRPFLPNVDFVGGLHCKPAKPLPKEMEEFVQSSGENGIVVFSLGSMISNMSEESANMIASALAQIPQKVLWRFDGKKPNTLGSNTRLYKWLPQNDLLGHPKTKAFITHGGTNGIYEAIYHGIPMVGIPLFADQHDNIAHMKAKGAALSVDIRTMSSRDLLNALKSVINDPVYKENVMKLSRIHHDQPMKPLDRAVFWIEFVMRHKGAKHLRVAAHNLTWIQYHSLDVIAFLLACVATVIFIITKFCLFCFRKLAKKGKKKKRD
Description: as §1, §2, §3

[1] = cited from earlier work
human UGT1A1 = biological target: T5, human UGT1A1 (Homo sapiens, UniProt P22309); assay: Epirubicin glucuronidation in microsomes expressing UGT1A1; conditions: Nd = not detectable
T5 sequence (P22309 26-533): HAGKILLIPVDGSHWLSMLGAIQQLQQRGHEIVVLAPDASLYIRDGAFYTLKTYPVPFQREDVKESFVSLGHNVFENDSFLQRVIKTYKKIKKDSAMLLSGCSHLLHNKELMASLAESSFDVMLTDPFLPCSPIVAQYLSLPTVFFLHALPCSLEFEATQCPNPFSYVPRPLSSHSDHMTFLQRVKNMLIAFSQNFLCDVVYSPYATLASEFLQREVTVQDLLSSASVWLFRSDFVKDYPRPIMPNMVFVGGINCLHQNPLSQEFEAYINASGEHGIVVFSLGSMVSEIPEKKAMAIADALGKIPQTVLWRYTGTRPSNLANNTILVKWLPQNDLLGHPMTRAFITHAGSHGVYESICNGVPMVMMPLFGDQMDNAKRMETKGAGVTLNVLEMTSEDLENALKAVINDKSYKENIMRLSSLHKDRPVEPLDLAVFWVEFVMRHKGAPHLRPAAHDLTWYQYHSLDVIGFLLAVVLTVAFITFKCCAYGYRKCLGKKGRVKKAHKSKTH
Description: as §1, §2, §3

human UGT1A9 = biological target: T6, human UGT1A9 (Homo sapiens, UniProt O60656); assay: Epirubicin glucuronidation in microsomes expressing UGT1A9; conditions: Nd = not detectable
T6 sequence (O60656 26-530): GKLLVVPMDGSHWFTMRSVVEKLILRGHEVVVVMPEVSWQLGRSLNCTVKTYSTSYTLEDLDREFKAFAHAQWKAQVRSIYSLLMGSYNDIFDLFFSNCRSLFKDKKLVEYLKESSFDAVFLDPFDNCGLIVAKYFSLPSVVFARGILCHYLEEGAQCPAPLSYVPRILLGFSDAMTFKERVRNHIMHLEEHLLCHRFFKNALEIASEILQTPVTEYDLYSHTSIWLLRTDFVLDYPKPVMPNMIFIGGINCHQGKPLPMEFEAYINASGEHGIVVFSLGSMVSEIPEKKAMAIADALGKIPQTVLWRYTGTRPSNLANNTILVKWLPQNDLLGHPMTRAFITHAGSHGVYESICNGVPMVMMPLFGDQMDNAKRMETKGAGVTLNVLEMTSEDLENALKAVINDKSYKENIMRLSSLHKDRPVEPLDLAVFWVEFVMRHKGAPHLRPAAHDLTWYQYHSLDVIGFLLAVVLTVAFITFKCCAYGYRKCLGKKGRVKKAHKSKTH
Description: as §1, §2, §3

SMILES: COc1cccc2c1C(=O)c1c(O)c3c(c(O)c1C2=O)C[C@@](O)(C(=O)CO)C[C@@H]3O[C@H]1C[C@H](N)[C@@H](O)[C@H](C)O1 [Epirubicin, 4′-epi-doxorubicin]
- Formation rate of epirubicin glucuronide (human UGT1A4): No epirubicin glucuronidating activity
- Formation rate of epirubicin glucuronide (human UGT1A3): No epirubicin glucuronidating activity
- Formation rate of epirubicin glucuronide (human UGT1A6): No epirubicin glucuronidating activity
- Formation rate of epirubicin glucuronide (human UGT2B15): No epirubicin glucuronidating activity
- Median half-life, first phase ([1]; 3-compartment model): about 3.2 minutes
- Median half-life, second phase ([1]; 3-compartment model): ~1.2 h
- Median half-life, third phase ([1]; 3-compartment model): ~32 h
- Fraction excreted in the urine ([1]; elimination primarily biliary): less than 15%
- Total plasma clearance ([1]; human, in vivo): about 46 L/h/m^2
- Formation rate of epirubicin glucuronide (human UGT1A1): No epirubicin glucuronidating activity
- Formation rate of epirubicin glucuronide (human UGT1A9): No epirubicin glucuronidating activity

From patent US20030099960A1, “Compositions and methods for optimizing UGT2B7 substrate dosings and for predicting UGT2B7 substrate toxicity” (The University of Chicago, priority 2001, published 2003)
